Test results from patent publication US12459951B2, “Compounds that interact with RAS superfamily proteins for treatment of cancers, inflammatory diseases, rasopathies, and fibrotic disease” (SHY Therapeutics, LLC, priority 2022, dated 2025).

Legend:
IL6 = test: IL-6 Quantification Assay (ELISA), LPS-stimulated RAW 264.7; format: cell-based; set-up: inhibition: dose or concentration left out as unconfirmed; conditions: Mus musculus, RAW264.7; read-out: IL-6: % inh.
TNF-alpha = TNF-alpha Quantification Assay (ELISA), LPS-stimulated RAW 264.7; format: cell-based; conditions: Mus musculus, RAW264.7; at 10 μM; read-out: TNFα: % inh.
[1] = Mouse Liver Microsome Metabolic Stability Assay; format: in vitro ADME; conditions: pH 7.4, Mouse liver microsomes, 37° C., NADPH, read-out: t½
Procedure: Biological Example 10: Assessment of Metabolic Stability in Mouse Liver Microsomes
Metabolic Stability Assay: Microsomal incubations were carried out in 96-well plates in 5 aliquots of 30 μL each (one for each time point). Liver microsomal incubation medium comprised of phosphate buffer (100 mM, pH 7.4), MgCl2 (3.3 mM), NADPH (3 mM), glucose-6-phosphate (5.3 mM), glucose-6-phosphate dehydrogenase (0.67 units/ml) with 0.42 mg of liver microsomal protein per mL. In the control reactions the NADPH-cofactor system was substituted with phosphate buffer. Test compounds (2 μM, final solvent concentration 1.6%) were incubated with microsomes at 37° C., shaking at 100 rpm. Each reaction was performed in duplicates. Five time points over 40 minutes were analyzed. The reactions were stopped by adding 5 volumes of methanol containing internal standard to incubation aliquots, followed by protein sedimentation by centrifuging at 5500 rpm for 4 minutes. Supernatants were analyzed using the HPLC system coupled with tandem mass spectrometer.
The elimination constant (kel), half-life (t1/2) and intrinsic clearance (Clint) were determined in plot of […] versus time, using linear regression analysis:
In order to indicate the quality of the linear regression analysis, the R (correlation coefficient) values are provided. In some cases, the last time point is excluded from the calculations to ensure acceptable logarithmic linearity of decay.
Table 9 show metabolic stability data for selected compounds tested in the Mouse Liver Microsome Metabolic Stability assay described above.

[2] = Kinetic Solubility Assay in pH 7.4 Buffer + 2% DMSO; format: physicochemical; conditions: phosphate-buffered saline pH 7.4 with 2% DMSO, aqueous buffer, kinetic from dmso stock, 25° C., two hours
Procedure: Biological Example 9: Kinetic Solubility
Kinetic solubility assay in pH 7.4 Buffer+2% DMSO (“Kinetic Solubility Assay) was performed according to the following protocol: Briefly, using a 20 mM stock solution of the tested compounds in 100% DMSO, dilutions were prepared to a theoretical concentration of 400 μM in duplicates in phosphate-buffered saline pH 7.4 (138 mM NaCl, 2.7 mM KCl, 10 mM K-phosphate) with 2% final DMSO. The tested compounds dilutions in PBS were further allowed to equilibrate at 25° C. on a thermostatic shaker for two hours and then filtered through HTS filter plates using a vacuum manifold. The filtrates of the test compounds were diluted 2-fold with acetonitrile with 2% DMSO before measuring.
In parallel, using a 20 mM stock solution of the tested compounds in 100% DMSO, dilutions were prepared to theoretical concentrations of 0 μM (blank), 10 μM, 25 μM, 50 μM, 100 μM, and 200 μM in 50% acetonitrile/PBS with 2% final DMSO to generate calibration curves. Ondansetron was used as a reference compound to control proper assay performance. 200 μL of each sample was transferred to a 96-well plate and measured in the 230-550 nm range with a 5 nm step.
The concentrations of compounds in PBS filtrate are calculated using a dedicated Microsoft Excel calculation script. Proper absorbance wavelengths for calculations are selected for each compound manually based on absorbance maximums (absolute absorbance unit values for the minimum and maximum concentration points within the 0-3 OD range). Each final dataset is visually evaluated by the operator, and goodness of fit (R2) is calculated for each calibration curve. The effective range of this assay is approximately 2-400 μM and the compounds returning values close to the upper limit of the range may have higher actual solubility (e.g., 5′-deoxy-5-fluorouridine).
Table 8 show kinetic solubility data for selected compounds tested in the Kinetic Solubility assay described above.

Akt phosphorylation = test: Akt Phosphorylation Assay (western blot), Panc-1; format: cell-based, human; conditions: at 10 μM, * = activation
Procedure, shortened: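 Panc-1 (KRas G12D) cells were treated with compound at 10 μM final (0.3% DMSO) for 6 h at 37 °C, or with serial dilutions for IC50. Cells were either serum-starved overnight in 0.5% FBS and then stimulated with 1.5 ng/ml EGF for 15 min, or kept in 10% FBS without stimulation. Akt Ser473 phosphorylation in lysates was read by western blot.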

Compound	half-life at 2 µM [1] [min]	solubility at 2 h [2] [µM]	inhibition (IL6) [%]	inhibition at 10 µM (TNF-alpha) [%]	% inh of Akt phosphorylation in Panc-1 (Akt phosphorylation)
Cc1c(-c2ccn(C)n2)cn2nc(-c3nccn3C)nc(Nc3cc(C4CC4)[nH]n3)c12 [Compound 104, N-(5-Cyclopropyl-1H-pyrazol-3-yl)-5-methyl-2-(1-methyl-1H-imidazol-2-yl)-6-(1-methyl-1H-pyrazol-3-yl)pyrrolo[2,1-f][1,2,4]triazin-4-amine]	> 10	< 10	75 to 100	0	D* (85-100% activation)
Cc1c(-c2ccn(C)n2)cn2nc(-c3nccn3C)nc(Nc3cc4n(n3)CCO4)c12 [Compound 124, N-(5-Methyl-2-(1-methyl-1H-imidazol-2-yl)-6-(1-methyl-1H-pyrazol-3-yl)pyrrolo[2,1-f][1,2,4]triazin-4-yl)-2,3-dihydropyrazolo[5,1-b]oxazol-6-amine]	> 10	10 to 30	25 to 49	1 to 24	C* (46-84% activation)
CCOc1ccnc(Nc2nc(-c3nccn3C)nn3cc(-c4ccn(C5CC5)n4)c(C)c23)c1 [Compound 141, 6-(1-Cyclopropyl-1H-pyrazol-3-yl)-N-(4-ethoxypyridin-2-yl)-5-methyl-2-(1-methyl-1H-imidazol-2-yl)pyrrolo[2,1-f][1,2,4]triazin-4-amine]	> 10	10 to 30	25 to 49	0	A (1-25% inhibition)
Cc1c(-c2ccn(C3CC3)n2)cn2nc(-c3nccn3C)nc(Nc3cc(OC4CC4)ccn3)c12 [Compound 142, N-(4-Cyclopropoxypyridin-2-yl)-6-(1-cyclopropyl-1H-pyrazol-3-yl)-5-methyl-2-(1-methyl-1H-imidazol-2-yl)pyrrolo[2,1-f][1,2,4]triazin-4-amine]	> 10	10 to 30	25 to 49	0	A (1-25% inhibition)
Cc1c(-c2ccn(C3CC3)n2)cn2nc(-c3nccn3C)nc(Nc3ccccn3)c12 [Compound 143, 6-(1-Cyclopropyl-1H-pyrazol-3-yl)-5-methyl-2-(1-methyl-1H-imidazol-2-yl)-N-(pyridin-2-yl)pyrrolo[2,1-f][1,2,4]triazin-4-amine]	< 10	< 10	75 to 100	50 to 74	D* (85-100% activation)
Cc1ccnc(Nc2nc(-c3nccn3C)nn3cc(-c4ccn(C5CC5)n4)c(C)c23)c1 [Compound 144, 6-(1-Cyclopropyl-1H-pyrazol-3-yl)-5-methyl-2-(1-methyl-1H-imidazol-2-yl)-N-(4-methylpyridin-2-yl)pyrrolo[2,1-f][1,2,4]triazin-4-amine]	> 10	< 10	25 to 49	1 to 24	B* (26-49% activation)
Cc1c(-c2ccn(C3CC3)n2)cn2nc(-c3nccn3C)nc(Nc3cc(N(C)C)ccn3)c12 [Compound 145, N^2-(6-(1-Cyclopropyl-1H-pyrazol-3-yl)-5-methyl-2-(1-methyl-1H-imidazol-2-yl)pyrrolo[2,1-f][1,2,4]triazin-4-yl)-N^4,N^4-dimethylpyridine-2,4-diamine]	> 10	10 to 30	50 to 74	1 to 24	D* (85-100% activation)

Now from value to compound, other results behind:

half-life at 2 µM [1] [min]	solubility at 2 h [2] [µM]	Compound	inhibition (IL6) [%]	inhibition at 10 µM (TNF-alpha) [%]	% inh of Akt phosphorylation in Panc-1 (Akt phosphorylation)
> 10	10 to 30	COc1ccnc(Nc2nc(-c3nccn3C)nn3cc(-c4ccn(C5CC5)n4)c(C)c23)c1 [Compound 137, 6-(1-Cyclopropyl-1H-pyrazol-3-yl)-N-(4-methoxypyridin-2-yl)-5-methyl-2-(1-methyl-1H-imidazol-2-yl)pyrrolo[2,1-f][1,2,4]triazin-4-amine]	1 to 24	1 to 24	D* (85-100% activation)
> 10	< 10	COc1ccnc(Nc2nc(-c3nccn3C)nn3cc(-c4cccnc4)c(C)c23)c1 [Compound 157, N-(4-Methoxy-pyridin-2-yl)-5-methyl-2-(1-methyl-1H-imidazol-2-yl)-6-(pyridin-3-yl)pyrrolo[2,1-f][1,2,4]triazin-4-amine]	1 to 24	0	D* (85-100% activation)
< 10	10 to 30	COc1ccnc(Nc2nc(-c3nccn3C)nn3cc(-c4cccnc4)c(C)c23)n1 [Compound 158, N-(4-Methoxy-pyrimidin-2-yl)-5-methyl-2-(1-methyl-1H-imidazol-2-yl)-6-(pyridin-3-yl)pyrrolo[2,1-f][1,2,4]triazin-4-amine]	1 to 24	0	D* (85-100% activation)
